Assay results: PubChem BioAssay AID248 (DTP/NCI, 2004)
Several values for one entry are separate records, joined by “and”; a condition that tells them apart may be missing. Identical values can stand only once. Toxic doses and inconclusive results are not listed. Cut-off read from the data, not from the text of the source: active = T/C of 150% or more; inactive = T/C below 125%.

Test system: L1210 leukemia ip in BDF1 mice, survival T/C
Test: NCI In Vivo Anticancer Drug Screen. Data for tumor model L1210 Leukemia (intraperitoneal) in B6D2F1 (BDF1) mice
Conditions: endpoint: mean survival time, higher = longer survival
Summary of the method: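 Tumor was transplanted into mice, which were then dosed with test compound or vehicle alone. Survival was recorded for each group, and the treated figure was expressed relative to the control figure.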

[1] = dose: 100.0 mg/kg/injection, schedule: Q01DX001 (ip), vehicle: Klucel (hydroxypropylcellulose) (HPC)
[2] = dose: 200.0 mg/kg/injection, schedule: Q01DX001 (ip), vehicle: Klucel (hydroxypropylcellulose) (HPC)
[3] = dose: 400.0 mg/kg/injection, schedule: Q01DX001 (ip), vehicle: Klucel (hydroxypropylcellulose) (HPC)
[4] = dose: 100.0 mg/kg/injection, schedule: Q04DX003 (ip), vehicle: saline
[5] = dose: 200.0 mg/kg/injection, schedule: Q04DX003 (ip), vehicle: saline
[6] = dose: 400.0 mg/kg/injection, schedule: Q04DX003 (ip), vehicle: saline
[7] = dose: 50.0 mg/kg/injection, schedule: Q01DX001 (ip), vehicle: carboxymethylcellulose (CMC)
[8] = dose: 100.0 mg/kg/injection, schedule: Q01DX001 (ip), vehicle: carboxymethylcellulose (CMC)
[9] = dose: 200.0 mg/kg/injection, schedule: Q01DX001 (ip), vehicle: carboxymethylcellulose (CMC)
[10] = dose: 400.0 mg/kg/injection, schedule: Q01DX001 (ip), vehicle: carboxymethylcellulose (CMC)
[11] = dose: 100.0 mg/kg/injection, schedule: Q01DX001 (ip), vehicle: saline with Tween-80
[12] = dose: 100.0 mg/kg/injection, schedule: Q01DX009 (ip), vehicle: saline with Tween-80
[13] = dose: 200.0 mg/kg/injection, schedule: Q01DX001 (ip), vehicle: saline with Tween-80
[14] = dose: 200.0 mg/kg/injection, schedule: Q01DX009 (ip), vehicle: saline with Tween-80
[15] = dose: 400.0 mg/kg/injection, schedule: Q01DX001 (ip), vehicle: saline with Tween-80
[16] = dose: 100.0 mg/kg/injection, schedule: Q04DX002 (ip), vehicle: saline with Tween-80
[17] = dose: 200.0 mg/kg/injection, schedule: Q04DX002 (ip), vehicle: saline with Tween-80
[18] = dose: 400.0 mg/kg/injection, schedule: Q04DX002 (ip), vehicle: saline with Tween-80
[19] = dose: 100.0 mg/kg/injection, schedule: Q04DX003 (ip), vehicle: saline with Tween-80
[20] = dose: 200.0 mg/kg/injection, schedule: Q04DX003 (ip), vehicle: saline with Tween-80
[21] = dose: 400.0 mg/kg/injection, schedule: Q04DX003 (ip), vehicle: saline with Tween-80

Measured: T/C

CCCCc1c(-c2ccccc2)nc(N)[nH]c1=O
inactive: [1] 103 % of control | [2] 102 % of control | [3] 104 % of control

CC(=O)On1nnc2c(Cl)c(Cl)c(Cl)c(Cl)c21
inactive: [4] 94 % of control | [5] 94 % of control | [6] 87 % of control

c1cc(-n2nnc3cnccc32)ccn1
inactive: dose: 6.25 mg/kg/injection, schedule: Q04DX003 (ip), vehicle: saline 100 % of control | dose: 12.5 mg/kg/injection, schedule: Q04DX003 (ip), vehicle: saline 91 % of control | dose: 25.0 mg/kg/injection, schedule: Q04DX003 (ip), vehicle: saline 102 % of control | [4] 86 % of control

CC(=O)Nn1nnnc1N
inactive: [4] 99 % of control | [5] 91 % of control | [6] 105 % of control

CC(=O)NCCN(C)C
inactive: dose: 100.0 mg/kg/injection, schedule: Q01DX009 (ip), vehicle: saline 97 % of control | [4] 103 % of control | dose: 200.0 mg/kg/injection, schedule: Q01DX009 (ip), vehicle: saline 96 % of control | [5] 101 % of control | dose: 400.0 mg/kg/injection, schedule: Q01DX009 (ip), vehicle: saline 97 % of control | [6] 97 % of control

CCCCCCCCCCCc1n(Cc2ccccc2)cc[n+]1C
inactive: dose: 0.5 mg/kg/injection, schedule: Q01DX001 (ip), vehicle: saline 101 % of control | dose: 0.5 mg/kg/injection, schedule: Q01DX009 (ip), vehicle: acetone 111 % of control | dose: 1.0 mg/kg/injection, schedule: Q01DX001 (ip), vehicle: saline 95 % of control | dose: 1.0 mg/kg/injection, schedule: Q01DX009 (ip), vehicle: acetone 118 % of control | dose: 2.0 mg/kg/injection, schedule: Q01DX001 (ip), vehicle: saline 101 % of control | dose: 2.0 mg/kg/injection, schedule: Q04DX003 (ip), vehicle: saline 95 % of control | dose: 8.0 mg/kg/injection, schedule: Q01DX001 (ip), vehicle: saline 103 % of control

[O-][N+](=Nc1cccc(Br)c1)c1cccc(Br)c1
inactive: [7] 101 % of control | [8] 104 % of control | [9] 101 % of control | [10] 117 % of control

O=P(O)(O)c1cccc(Oc2ccccc2)c1
inactive: dose: 75.0 mg/kg/injection, schedule: Q01DX001 (ip), vehicle: saline 100 % of control | dose: 150.0 mg/kg/injection, schedule: Q01DX001 (ip), vehicle: saline 100 % of control

Nc1ccn(Cc2ccccc2)c(=O)n1
inactive: dose: 75.0 mg/kg/injection, schedule: Q01DX001 (ip), vehicle: saline with Tween-80 95 % of control | dose: 150.0 mg/kg/injection, schedule: Q01DX001 (ip), vehicle: saline with Tween-80 94 % of control | dose: 300.0 mg/kg/injection, schedule: Q01DX001 (ip), vehicle: saline with Tween-80 95 % of control

O=c1ccc([N+](=O)[O-])cn1Cc1ccccc1
inactive: [11] 114 % of control | [12] 106 % of control | [13] 100 % of control | [14] 98 % of control | [15] 96 % of control | dose: 400.0 mg/kg/injection, schedule: Q01DX009 (ip), vehicle: saline with Tween-80 106 % of control

O=C(O)CNC(=O)NCO
inactive: dose: 100.0 mg/kg/injection, schedule: Q01DX001 (ip), vehicle: acetone 100 % of control | dose: 200.0 mg/kg/injection, schedule: Q01DX001 (ip), vehicle: acetone 100 % of control | dose: 400.0 mg/kg/injection, schedule: Q01DX001 (ip), vehicle: acetone 103 % of control

CCOC(=O)/C=C1\CCCc2ccc(Cl)cc21
inactive: dose: 50.0 mg/kg/injection, schedule: Q04DX002 (ip), vehicle: saline with Tween-80 111 % of control | [16] 101 % of control and 104 % of control | [17] 101 % of control | [18] 101 % of control

ClCc1noc(-c2ccccc2)n1
inactive: [16] 98 % of control | [17] 95 % of control | [18] 101 % of control

Cc1ccccc1-c1nc2c(N)nc(N)nc2nc1N
inactive: dose: 25.25 mg/kg/injection, schedule: Q01DX Z (ip), vehicle: carboxymethylcellulose (CMC) 104 % of control | [7] 101 % of control | dose: 50.5 mg/kg/injection, schedule: Q01DX Z (ip), vehicle: carboxymethylcellulose (CMC) 106 % of control | dose: 79.0 mg/kg/injection, schedule: Q04DX002 (ip), vehicle: Klucel (hydroxypropylcellulose) (HPC) 111 % of control | [8] 96 % of control | dose: 118.0 mg/kg/injection, schedule: Q04DX002 (ip), vehicle: Klucel (hydroxypropylcellulose) (HPC) 97 % of control | dose: 180.0 mg/kg/injection, schedule: Q04DX002 (ip), vehicle: Klucel (hydroxypropylcellulose) (HPC) 100 % of control | [9] 104 % of control | dose: 270.0 mg/kg/injection, schedule: Q04DX002 (ip), vehicle: Klucel (hydroxypropylcellulose) (HPC) 111 % of control | [10] 98 % of control | dose: 500.0 mg/kg/injection, schedule: Q01DX Z (ip), vehicle: methylcellulose (MC) 120 % of control | dose: 750.0 mg/kg/injection, schedule: Q01DX Z (ip), vehicle: methylcellulose (MC) 114 % of control | dose: 1000.0 mg/kg/injection, schedule: Q01DX Z (ip), vehicle: methylcellulose (MC) 101 % of control

COc1cc(/C=N/NC(=O)CCCCCCCCC(=O)N/N=C/c2ccc(O)c(OC)c2)ccc1O
inactive: dose: 50.0 mg/kg/injection, schedule: Q01DX009 (ip), vehicle: saline with Tween-80 95 % of control and 97 % of control | [11] 92 % of control | [12] 93 % of control and 91 % of control | [16] 101 % of control | [19] 87 % of control | [13] 95 % of control | [14] 94 % of control and 100 % of control | [17] 93 % of control and 103 % of control | [20] 97 % of control | [15] 92 % of control | [18] 90 % of control | [21] 101 % of control

Cc1c(N)nc(Br)c2ccccc12
inactive: [19] 105 % of control | [20] 101 % of control | [21] 110 % of control

COc1ccc(C(CCCC(=O)O)c2ccc(OC)cc2)cc1
inactive: dose: 100.0 mg/kg/injection, schedule: Q01DX001 (ip), vehicle: saline 112 % of control | dose: 200.0 mg/kg/injection, schedule: Q01DX001 (ip), vehicle: saline 104 % of control | dose: 400.0 mg/kg/injection, schedule: Q01DX001 (ip), vehicle: saline 104 % of control

C/C=C\C=C\C(=O)OC
inactive: [19] 99 % of control | [20] 89 % of control | [21] 92 % of control

CC(Cl)(Cl)CC(O)(C(F)(F)F)C(F)(F)F
inactive: dose: 50.0 mg/kg/injection, schedule: Q04DX003 (ip), vehicle: saline with Tween-80 95 % of control | [19] 105 % of control | [20] 91 % of control

CCOC(=O)/C=C(/Nc1ccc(S(=O)(=O)F)cc1)c1ccccc1
inactive: [1] 104 % of control | [2] 100 % of control | [3] 98 % of control

O=C1NC2(CCCC2)C(=O)N2CCCC12 (centres undefined)
inactive: dose: 400.0 mg/kg/injection, schedule: Q04DX003 (ip), vehicle: Klucel (hydroxypropylcellulose) (HPC) 97 % of control

CCOC(=O)c1ccc(N=NN(CCF)CCF)cc1
inactive: dose: 10.0 mg/kg/injection, schedule: Q01DX Z (ip), vehicle: saline 95 % of control | dose: 30.0 mg/kg/injection, schedule: Q01DX Z (ip), vehicle: saline 94 % of control | dose: 100.0 mg/kg/injection, schedule: Q01DX Z (ip), vehicle: saline 89 % of control | dose: 300.0 mg/kg/injection, schedule: Q01DX Z (ip), vehicle: saline 95 % of control

C[n+]1c(-c2ccc(Cl)c(Cl)c2)c2cc([N+](=O)[O-])ccc2c2ccccc21
inactive: [4] 95 % of control | [5] 93 % of control | [6] 97 % of control
